biological target: Escherichia coli DNA gyrase A/B tetramer (Escherichia coli, UniProt P0AES4+P0AES6); assay: DNA gyrase supercoiling activity fluorescence polarisation assay; assay type: biochemical; conditions: not given
Procedure, shortened: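 5 nM gyrase supercoils 130 μg/ml relaxed triplex-sequence plasmid with 0.3 mM ATP in Tris pH 7.5/KCl/MgCl2/spermidine buffer, 0.8% DMSO, ~30 min at ambient temperature, 5-10 compound concentrations. Quenched with 40 nM BODIPY-FL triplex probe at pH 3.5; anisotropy read after 60 min (485/535 nm). IC50 by nonlinear regression against no-compound and 5 uM ciprofloxacin controls.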

Sequence of Escherichia coli DNA gyrase A/B tetramer (P0AES4 whole entry, one chain of several): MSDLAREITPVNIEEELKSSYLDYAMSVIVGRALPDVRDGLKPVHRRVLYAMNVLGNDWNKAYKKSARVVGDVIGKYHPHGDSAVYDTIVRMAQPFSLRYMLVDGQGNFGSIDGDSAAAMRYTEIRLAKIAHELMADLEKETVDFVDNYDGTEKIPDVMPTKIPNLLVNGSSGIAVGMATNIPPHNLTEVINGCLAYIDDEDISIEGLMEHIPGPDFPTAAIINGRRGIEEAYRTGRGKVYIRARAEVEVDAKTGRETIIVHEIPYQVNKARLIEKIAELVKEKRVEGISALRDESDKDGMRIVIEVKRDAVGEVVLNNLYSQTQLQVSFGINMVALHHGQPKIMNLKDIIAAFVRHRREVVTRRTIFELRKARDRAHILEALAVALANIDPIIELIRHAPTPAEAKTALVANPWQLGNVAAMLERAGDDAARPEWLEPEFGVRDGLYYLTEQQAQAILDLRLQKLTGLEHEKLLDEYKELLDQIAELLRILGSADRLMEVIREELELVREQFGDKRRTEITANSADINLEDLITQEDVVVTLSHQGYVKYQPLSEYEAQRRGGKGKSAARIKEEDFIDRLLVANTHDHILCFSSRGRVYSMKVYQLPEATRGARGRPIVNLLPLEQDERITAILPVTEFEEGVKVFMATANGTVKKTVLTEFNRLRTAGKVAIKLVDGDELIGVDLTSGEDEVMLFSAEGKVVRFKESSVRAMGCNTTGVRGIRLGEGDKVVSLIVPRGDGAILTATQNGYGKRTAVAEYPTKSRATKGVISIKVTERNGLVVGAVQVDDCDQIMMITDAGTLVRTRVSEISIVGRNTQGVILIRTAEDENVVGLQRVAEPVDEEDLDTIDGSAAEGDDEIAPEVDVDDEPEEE

First: C[C@@H]1CN2c3c(cc(C(=O)NC4CCS(=O)(=O)C4)c(F)c3F)CC3(C(=O)NC(=O)NC3=O)[C@H]2[C@H](C)O1 (relative stereo) [Example 62, (2R,4S,4aS)-rel-N-(1,1-Dioxidotetrahydrothiophen-3-yl)-9,10-difluoro-2,4-dimethyl-2′,4′,6′-trioxo-1,1′,2,3′,4,4′,4a,6′-octahydro-2′H,6H-spiro[1,4-oxazino[4,3-a]quinoline-5,5′-pyrimidine]-8-carboxamide]
Second: C[C@@H]1CN2c3c(cc(C(=O)NC4CCNC4)c(F)c3F)CC3(C(=O)NC(=O)NC3=O)[C@H]2[C@H](C)O1 (relative stereo) [Example 70, (2R,4S,4aS)-rel-9,10-Difluoro-2,4-dimethyl-2′,4′,6′-trioxo-N-(pyrrolidin-3-yl)-1,1′,2,3′,4,4′,4a,6′-octahydro-2′H,6H-spiro[1,4-oxazino[4,3-a]quinoline-5,5′-pyrimidine]-8-carboxamide]
The IC50 of the first is 2.4-fold higher: 7100 nM for the first, 2910 nM for the second. The second is the more potent here.

First: C[C@@H]1CN2c3ccc(NS(=O)(=O)N4CCOCC4)cc3CC3(C(=O)NC(=O)NC3=O)[C@H]2[C@H](C)O1 (relative stereo) [Example 75, N-[(2R,4S ,4aS)-rel-2,4-Dimethyl-2′,4′,6′-trioxo-1,1′,2,3′,4,4′,4a,6′-octahydro-2′H,6H-spiro[1,4-oxazino[4,3-a]quinoline-5,5′-pyrimidin]-8-yl]morpholine-4-sulfonamide]
Second: CCNC(=O)Nc1ccc2c(c1)CC1(C(=O)NC(=O)NC1=O)[C@H]1[C@H](C)O[C@H](C)CN21 (relative stereo) [Example 72, 1-[(2R,4S,4aS)-rel-2,4-Dimethyl-2′,4′,6′-trioxo-1,1′,2,3′,4,4′,4a,6′-octahydro-2′H,6H-spiro[1,4-oxazino[4,3-a]quinoline-5,5′-pyrimidin]-8-yl]-3-ethylurea]
The IC50 of the first is 16-fold lower: 660 nM for the first, 10400 nM for the second.

`C[C@@H]1CN2c3cc(F)c(C#Cc4cccnc4)cc3CC3(C(=O)NC(=O)NC3=O)[C@H]2[C@H](C)O1` (relative stereo) [Example 32, (2R,4S,4aS)-rel-9-Fluoro-2,4-dimethyl-8-(pyridin-3-ylethynyl)-1,2,4,4a-tetrahydro-2′H,6H-spiro[1,4-oxazino[4,3-a]quinoline-5,5′-pyrimidine]-2′,4′,6′(1′H,3′H)-trione] and `C[C@@H]1CN2c3cc(F)c(C#Cc4nc5ccccc5s4)cc3CC3(C(=O)NC(=O)NC3=O)[C@H]2[C@H](C)O1` (relative stereo) [Example 34, (2R,4S,4aS)-rel-8-(1,3-Benzothiazol-2-ylethynyl)-9-fluoro-2,4-dimethyl-1,2,4,4a-tetrahydro-2′H,6H-spiro[1,4-oxazino[4,3-a]quinoline-5,5′-pyrimidine]-2′,4′,6′(1′H,3′H)-trione] are within 1.5-fold of each other in IC50: 2240 nM for the first, 2950 nM for the second.

Going from `C[C@@H]1CN2c3c(cc(C(=O)NC4CCN(c5ccccn5)CC4)c(F)c3F)CC3(C(=O)NC(=O)NC3=O)[C@H]2[C@H](C)O1` (relative stereo) [Example 68, (2R,4S,4aS)-rel-9,10-Difluoro-2,4-dimethyl-2′,4′,6′-trioxo-N-[1-(pyridin-2-yl)piperidin-4-yl]-1,1′,2,3′,4,4′,4a,6′-octahydro-2′H,6H-spiro[1,4-oxazino[4,3-a]quinoline-5,5′-pyrimidine]-8-carboxamide] to `C[C@@H]1CN2c3c(cc(C(=O)NC4CCCOC4)c(F)c3F)CC3(C(=O)NC(=O)NC3=O)[C@H]2[C@H](C)O1` (relative stereo) [Example 65, (2R,4S,4aS)-rel-9,10-Difluoro-2,4-dimethyl-2′,4′,6′-trioxo-N-(tetrahydro-2H-pyran-3-yl)-1,1′,2,3′,4,4′,4a,6′-octahydro-2′H,6H-spiro[1,4-oxazino[4,3-a]quinoline-5,5′-pyrimidine]-8-carboxamide], the IC50 rises from 4150 nM to over 10000 nM. The first is the more potent here.

First: Cc1nnc(C#Cc2cc3c(cc2F)N2C[C@@H](C)O[C@@H](C)[C@@H]2C2(C3)C(=O)NC(=O)NC2=O)s1 (relative stereo) [Example 25, (2R,4S,4aS)-rel-9-Fluoro-2,4-dimethyl-8-[(5-methyl-1,3,4-thiadiazol-2-yl)ethynyl]-1,2,4,4a-tetrahydro-2′H,6H-spiro[1,4-oxazino[4,3-a]quinoline-5,5′-pyrimidine]-2′,4′,6′(1′H,3′H)-trione]
Second: C[C@H]1CN2c3c(cc(C#Cc4nncs4)c(F)c3F)CC3(C(=O)NC(=O)NC3=O)[C@@H]2[C@@H](C)O1 (relative stereo) [Example 7, (2S,4R,4aR)-rel-9,10-Difluoro-2,4-dimethyl-8-(1,3,4-thiadiazol-2-ylethynyl)-1,2,4,4a-tetrahydro-2′H,6H-spiro[1,4-oxazino[4,3-a]quinoline-5,5′-pyrimidine]-2′,4′,6′(1′H,3′H)-trione]
The IC50 of the first is 2.1-fold higher: 870 nM for the first, 410 nM for the second.

Going from `C[C@@H]1CN2c3c(F)cc(C#Cc4cnccn4)cc3CC3(C(=O)NC(=O)NC3=O)[C@H]2[C@H](C)O1` (relative stereo) [Example 43, (2R,4S,4aS)-rel-10-Fluoro-2,4-dimethyl-8-(pyrazin-2-ylethynyl)-1,2,4,4a-tetrahydro-2′H,6H-spiro[1,4-oxazino[4,3-a]quinoline-5,5′-pyrimidine]-2′,4′,6′(1′H,3′H)-trione] to `C[C@H]1CN2c3c(cc(C#Cc4cnccn4)c(F)c3F)CC3(C(=O)NC(=O)NC3=O)[C@@H]2[C@@H](C)O1` (relative stereo) [Example 20, (2S,4R,4aR)-rel-9,10-Difluoro-2,4-dimethyl-8-(pyrazin-2-ylethynyl)-1,2,4,4a-tetrahydro-2′H,6H-spiro[1,4-oxazino[4,3-a]quinoline-5,5′-pyrimidine]-2′,4′,6′(1′H,3′H)-trione], the IC50 falls from 1470 nM to 490 nM (3-fold).

`C/C(=N\Nc1ncccn1)c1cc2c(c(F)c1F)N1C[C@@H](C)O[C@@H](C)[C@@H]1C1(C2)C(=O)NC(=O)NC1=O` (relative stereo) [Example 59, (2R,4S,4aS)-rel-9,10-Difluoro-2,4-dimethyl-8-{(1E)-1-[2-(pyrimidin-2-yl)hydrazinylidene]ethyl}-1,2,4,4a-tetrahydro-2′H,6H-spiro[1,4-oxazino[4,3-a]quinoline-5,5′-pyrimidine]-2′,4′,6′(1′H,3′H)-trione] and `CC(=O)N/N=C(\C)c1cc2c(c(F)c1F)N1C[C@@H](C)O[C@@H](C)[C@@H]1C1(C2)C(=O)NC(=O)NC1=O` (relative stereo) [Example 48, N′-{(1E)-1-[(2R,4S,4aS)-rel-9,10-Difluoro-2,4-dimethyl-2′,4′,6′-trioxo-1,1′,2,3′,4,4′,4a,6′-octahydro-2′H,6H-spiro[1,4-oxazino[4,3-a]quinoline-5,5′-pyrimidin]-8-yl]ethylidene}acetohydrazide] are within 1.5-fold of each other in IC50: 1640 nM for the first, 1300 nM for the second.

Compared with `C[C@@H]1CN2c3c(F)cc(C#Cc4cccs4)cc3CC3(C(=O)NC(=O)NC3=O)[C@H]2[C@H](C)O1` (relative stereo) [Example 40, (2R,4S,4aS)-rel-10-Fluoro-2,4-dimethyl-8-(thiophen-2-ylethynyl)-1,2,4,4a-tetrahydro-2′H,6H-spiro[1,4-oxazino[4,3-a]quinoline-5,5′-pyrimidine]-2′,4′,6′(1′H,3′H)-trione], `C/C(=N\NC(N)=O)c1cc2c(c(F)c1F)N1C[C@@H](C)O[C@@H](C)[C@@H]1C1(C2)C(=O)NC(=O)NC1=O` (relative stereo) [Example 54, (2E)-2-{1-[(2R,4S,4aS)-rel-9,10-Difluoro-2,4-dimethyl-2′,4′,6′-trioxo-1,1′,2,3′,4,4′,4a,6′-octahydro-2′H,6H-spiro[1,4-oxazino[4,3-a]quinoline-5,5′-pyrimidin]-8-yl]ethylidene}hydrazinecarboxamide] is 2-fold higher in IC50: 1140 nM for the first, 2300 nM for the second.

Work on `C[C@@H]1CN2c3c(cc(/C=N/N4CCCC4)c(F)c3F)CC3(C(=O)NC(=O)NC3=O)[C@H]2[C@H](C)O1` (relative stereo) [Example 21, (2R,4S,4 aS)-rel-9,10-Difluoro-2,4-dimethyl-8-[(E)-(pyrrolidin-1-ylimino)methyl]-1,2,4,4a-tetrahydro-2′H,6H-spiro[1,4-oxazino[4,3-a]quinoline-5,5′-pyrimidine]-2′,4′,6′(1′H,3′H)-trione] yielded an IC50 of 2250 nM.

same assay, conditions: 5 nM enzyme, 0.3 mM ATP, relaxed plasmid, fluorescence anisotropy readout; read-out: E. coli DNA gyrase supercoiling IC50

“(2R,4S,4aS)-rel-9,10-Difluoro-2,4-dimethyl-8-[(E)-(morpholin-4-ylimino)methyl]-1,2,4,4a-tetrahydro-2′H,6H-spiro[1,4-oxazino[4,3-a]quinoline-5,5′-pyrimidine]-2′,4′,6(1′H,3′H)-trione [Example 22]” was tested, and the IC50 was 1570 nM.

From patent publication US20100261719A1, “CHEMICAL COMPOUNDS” (priority 2007, published 2010)
